From the supplement of paper PMC10307832

Assays:
Assay in all cases: relative viability (nuclei count vs DMSO), 5 days (fraction); higher = more cells survive
TGX 221 + Tozasertib = compound: CC1=CN2C(=O)C=C(N=C2C(=C1)C(C)NC3=CC=CC=C3)N4CCOCC4 [TGX 221] + Cc1cc(Nc2cc(N3CCN(C)CC3)nc(Sc3ccc(NC(=O)C4CC4)cc3)n2)n[nH]1 [Tozasertib] (partner 0.1 µM)
How it was run: (§1)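 Nuclei were stained with Hoechst during a one-step fixation (final 0.05% Triton X-100, 1% formaldehyde, 1 ug/ml Hoechst) carried out 5 days after dosing, then counted on 4× images. The cells, lung cancer lines in 1536-well plates, had been dosed by pin tool the day after seeding with one drug alone or a fixed anchor-drug dose plus five library-drug doses (not always all listed) in √10 steps. Relative viability is the nuclei count in treated wells divided by that in vehicle wells, and each value is the median of duplicate plates.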

[1] = compound: O=C(CCCCCCNC(=O)c1cnc(N(c2ccccc2)c2ccccc2)nc1)NO [Ricolinostat] + O=C(CCCCCCC(=O)Nc1ccccc1)NO [Vorinostat] (partner 1 µM)
How it was run: as §1

[2] = compound: C1=CC=C(C(=C1)C2=CC=C(C=C2)C3=CSC4=C3C(=C(C(=O)N4)C#N)O)O + COc1cccc2cc(-c3nc([C@H]4CC[C@H](C(=O)O)CC4)n4ncnc(N)c34)[nH]c12 [OSI-027] (partner 0.5 µM)
How it was run: as §1

[3] = compound: O=C(CCCCCCNC(=O)c1cnc(N(c2ccccc2)c2ccccc2)nc1)NO [Ricolinostat] + C[C@@H](Oc1cc(-c2cnn(C3CCNCC3)c2)cnc1N)c1c(Cl)ccc(F)c1Cl [Crizotinib] (partner 1 µM)
How it was run: as §1

Cell Line	relative viability (TGX 221 + Tozasertib; first compound 0.08 µM)	relative viability (TGX 221 + Tozasertib; first compound 0.253 µM)	relative viability (TGX 221 + Tozasertib; first compound 0.8 µM)	relative viability (TGX 221 + Tozasertib; first compound 2.53 µM)	relative viability (TGX 221 + Tozasertib; first compound 8 µM)	relative viability ([1]; first compound 0.08 µM)	relative viability ([1]; first compound 0.253 µM)	relative viability ([1]; first compound 0.8 µM)	relative viability ([1]; first compound 2.53 µM)	relative viability ([2]; first compound 0.08 µM)	relative viability ([2]; first compound 0.253 µM)	relative viability ([2]; first compound 0.8 µM)	relative viability ([2]; first compound 2.53 µM)	relative viability ([2]; first compound 8 µM)	relative viability ([3]; first compound 0.08 µM)	relative viability ([3]; first compound 0.253 µM)	relative viability ([3]; first compound 0.8 µM)	relative viability ([3]; first compound 2.53 µM)
NCI-H2342	0.422	0.484	0.6	0.547	0.447	0.693	0.694	0.757	0.745	0.555	0.702	0.561	0.664	0.555				
SK-LU-1	0.346	0.356	0.321	0.343	0.308	0.669	0.613	0.731	0.607	0.342	0.369	0.276	0.397	0.3	0.789	0.897	0.809	0.682
NCI-H2023	0.332	0.297	0.397	0.302	0.145	0.511	0.544	0.47	0.369	0.32	0.441	0.404	0.382	0.317	0.567	0.715	0.605	0.508
NCI-H1299															0.928	0.917	0.974	0.891
LOU-NH91	0.713	0.653	0.697	0.675	0.562		0.955	0.782	0.755	0.765	0.721	0.71	0.727	0.69		0.738	0.734	0.783
LCLC-103H	0.409	0.466	0.465	0.434	0.354	0.662	0.738	0.639	0.522	0.372	0.39	0.519	0.469	0.434	0.951	1.02	1.04	1.05
SW 1573	0.175	0.208	0.211	0.165	0.207	0.554	0.667	0.751	0.49	0.618	0.821	0.657	0.54	0.391	0.761	0.851	0.784	0.733
NCI-H1755	0.522	0.499	0.521	0.538	0.428	0.665	0.715	0.673	0.484	0.762	0.848	0.616	0.686	0.751	0.786		0.893	0.79
COR-L 105	0.412	0.418	0.309	0.395	0.323	0.794	0.825	0.643	0.7	0.72	0.737	0.734	0.628	0.602	0.669	0.854	0.643	0.646
NCI-H1793	0.311	0.239	0.244	0.16	0.166	0.519	0.72	0.566	0.726	0.281	0.378	0.267	0.263	0.252				
EMC-BAC-2	0.255	0.318	0.296	0.307	0.275	0.398	0.417	0.25	0.293	0.41	0.411	0.312	0.355	0.357	0.697	0.698	0.695	0.681
H3255	0.449	0.529	0.692	0.563	0.613	0.735	1.09	0.672	0.591	0.684	0.599	0.671	0.553	0.532	0.822	0.823	0.804	0.749
PC-14	0.619	0.615	0.631	0.589	0.459	0.576	0.691	0.593	0.396	0.924	0.986	0.874	0.978	0.46	0.882	0.912	0.907	0.761
NCI-H661	0.348	0.371	0.392	0.358	0.373	0.68	0.716	0.722	0.558	0.648	0.739	0.524	0.649	0.664		0.99	0.973	0.984
HARA	0.147	0.105	0.123	0.1	0.0992	0.496	0.446	0.377	0.373	0.386	0.661	0.524	0.428	0.297	0.925	0.948	0.926	0.712
COR-L23	0.168	0.222	0.187	0.164	0.179	0.406	0.383	0.388	0.297	0.614	0.715	0.534	1.11	0.723	0.506	0.545	0.571	0.277
SK-MES-1	0.897	0.992	0.916	0.957	0.796	0.912	1.03	1.07	0.932	0.711	0.666	0.562	0.67	0.419	0.912	0.96	1.04	0.969
NCI-H1395	0.712	0.697	0.713	0.603	0.569		0.833	0.468	0.674	0.501	0.647	0.637	0.644	0.576				
NCI-H2170	0.658	0.666	0.626	0.731	0.67	0.774	0.744	0.737	0.501	0.76	0.74	0.676	0.677	0.754	1.16	1.17	1.16	1.23
NCI-H647	0.284	0.219	0.312	0.285	0.122	0.562	0.464	0.52	0.441	0.694	0.578	0.568	0.628	0.362	1.08	1.05	1.01	0.661
